Test results reported in patent US9376426B2, “Pyridazinone derivatives” (MERCK PATENT GMBH, priority 2009, dated 2016).
Structures can show the parent of a compound that is named as a salt.

Tests used:
Met kinase [1] = target: T1, Met kinase (Homo sapiens, UniProt P08581); test: Met kinase inhibition (cell); format: cell-based
Met kinase [2] = target: T1, Met kinase; test: Met kinase inhibition, flashplate method (enzyme); format: biochemical; parameters: 6His (N); purchased Upstate 14-526; host or cells: Sf21 insect cells (S. frugiperda), baculovirus
From the text: Measurement of Met Kinase Activity
According to the manufacturer's data (Met, active, upstate, catalogue No. 14-526), Met kinase is expressed for the purposes of protein production in insect cells (Sf21; S. frugiperda) and subsequent affinity-chromatographic purification as “N-terminal 6His-tagged” recombinant human protein in a baculovirus expression vector.
Flashplate Method (Met Kinase)
The test plates used are 96-well Flashplate® microtitre plates from Perkin Elmer (Cat. No. SMP200). The components of the kinase reaction described below are pipetted into the assay plate. The Met kinase and the substrate poly Ala-Glu-Lys-Tyr, (pAGLT, 6:2:5:1), are incubated for 3 hrs at room temperature with radioactively labelled ^33P-ATP in the presence and absence of test substances in a total volume of 100 μl. The reaction is terminated using 150 μl of a 60 mM EDTA solution. After incubation for a further 30 min at room temperature, the supernatants are filtered off with suction, and the wells are washed three times with 200 μl of 0.9% NaCl solution each time. The measurement of the bound radioactivity is carried out by means of a scintillation measuring instrument (Topcount NXT, Perkin-Elmer).
The full value used is the inhibitor-free kinase reaction. This should be approximately in the range 6000-9000 cpm. The pharmacological zero value used is staurosporin in a final concentration of 0.1 mM. The inhibitory values (IC50) are determined using the RS1_MTS program.
Kinase reaction conditions per well:
10 μl of substance to be tested in assay buffer with 10% of DMSO
10 μl of ATP (final concentration 1 μM cold, 0.35 μCi of ^33P-ATP)
50 μl of Met kinase/substrate mixture in assay buffer;
• (10 ng of enzyme/well, 50 ng of pAGLT/well) • Solutions used: • Assay buffer: • 50 mM HEPES • 3 mM magnesium chloride • 3 μM sodium orthovanadate • 3 mM manganese(II) chloride • 1 mM dithiothreitol (DTT) • pH=7.5 (to be set using sodium hydroxide) • Stop solution: • 60 mM Titriplex III (EDTA) • ^33P-ATP: Perkin-Elmer; • Met kinase: Upstate, Cat. No. 14-526, Stock 1 μg/10 μl; spec. activity 954 U/mg; • Poly-Ala-Glu-Lys-Tyr, 6:2:5:1:Sigma Cat. No. P1152 In-Vivo Tests Experimental Procedure: […]

T1 sequence (P08581 25-1390): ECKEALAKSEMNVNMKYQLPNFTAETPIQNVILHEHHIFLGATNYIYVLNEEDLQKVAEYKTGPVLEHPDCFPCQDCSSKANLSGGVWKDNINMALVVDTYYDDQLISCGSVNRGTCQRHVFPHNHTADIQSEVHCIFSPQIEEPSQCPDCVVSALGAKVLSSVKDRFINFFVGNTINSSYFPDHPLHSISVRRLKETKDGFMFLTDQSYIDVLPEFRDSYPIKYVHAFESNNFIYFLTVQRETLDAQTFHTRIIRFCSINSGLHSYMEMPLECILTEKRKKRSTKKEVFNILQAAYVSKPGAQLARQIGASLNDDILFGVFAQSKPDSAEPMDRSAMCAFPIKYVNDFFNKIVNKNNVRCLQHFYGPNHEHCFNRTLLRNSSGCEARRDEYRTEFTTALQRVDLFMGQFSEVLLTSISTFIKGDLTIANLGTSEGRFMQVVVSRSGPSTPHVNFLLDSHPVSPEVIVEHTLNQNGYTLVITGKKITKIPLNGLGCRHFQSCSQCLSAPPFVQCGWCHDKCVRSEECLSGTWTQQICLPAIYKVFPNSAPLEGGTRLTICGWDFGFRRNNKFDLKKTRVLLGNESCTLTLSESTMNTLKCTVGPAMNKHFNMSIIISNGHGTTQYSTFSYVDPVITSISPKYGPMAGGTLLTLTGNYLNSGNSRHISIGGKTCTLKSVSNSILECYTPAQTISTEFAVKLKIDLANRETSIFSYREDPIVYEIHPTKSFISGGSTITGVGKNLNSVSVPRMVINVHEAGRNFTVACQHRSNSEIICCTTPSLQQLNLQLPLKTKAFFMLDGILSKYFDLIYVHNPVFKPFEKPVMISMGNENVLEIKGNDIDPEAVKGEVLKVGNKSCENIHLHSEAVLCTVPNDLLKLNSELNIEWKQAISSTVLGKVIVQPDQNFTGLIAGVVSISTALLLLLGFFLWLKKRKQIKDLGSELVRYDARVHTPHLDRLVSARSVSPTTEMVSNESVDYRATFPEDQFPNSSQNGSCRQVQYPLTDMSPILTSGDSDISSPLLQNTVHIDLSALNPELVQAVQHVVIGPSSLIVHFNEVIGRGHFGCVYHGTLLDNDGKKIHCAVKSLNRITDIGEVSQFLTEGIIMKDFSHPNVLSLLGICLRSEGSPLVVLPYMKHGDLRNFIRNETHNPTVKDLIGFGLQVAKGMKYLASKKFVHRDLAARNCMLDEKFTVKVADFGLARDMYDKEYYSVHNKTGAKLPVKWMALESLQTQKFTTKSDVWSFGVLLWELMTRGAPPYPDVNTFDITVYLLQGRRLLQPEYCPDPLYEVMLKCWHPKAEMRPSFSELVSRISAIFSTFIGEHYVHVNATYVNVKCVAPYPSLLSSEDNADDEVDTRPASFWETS

Row | Compound | IC50 (Met kinase [1]) | IC50 (Met kinase [2])
1 | CN(C)CCCOc1cnc(-c2cccc(Cn3nc(Nc4ccccc4)ccc3=O)c2)nc1 [Compound A1, 2-{3-[5-(3-dimethylaminopropoxy)pyrimidin-2-yl]benzyl}-6-phenylamino-2H-pyridazin-3-one] | 100 to 10000 nM | 1 to 100 nM
2 | O=c1ccc(Nc2ccccc2)nn1Cc1cccc(-c2ncc(-c3cnn(C4CCNCC4)c3)cn2)c1 [Compound A2, 6-phenylamino-2-{3-[5-(1-piperidin-4-yl-1H-pyrazol-4-yl)pyrimidin-2-yl]benzyl}-2H-pyridazin-3-one] | 100 to 10000 nM | 1 to 100 nM
3 | O=c1ccc(Oc2ccccc2)nn1Cc1cccc(-c2ncc(-c3cnn(CCN4CCCC4)c3)cn2)c1 [Compound A3, 6-phenoxy-2-(3-{5-[1-(2-pyrrolidin-1-ylethyl)-1H-pyrazol-4-yl]pyrimidin-2-yl}benzyl)-2H-pyridazin-3-one] | 100 to 10000 nM | 1 to 100 nM
4 | O=c1ccc(Oc2ccccc2)nn1Cc1cccc(-c2ncc(-c3cnn(C4CCNCC4)c3)cn2)c1 [Compound A4, 6-phenoxy-2-{3-[5-(1-piperidin-4-yl-1H-pyrazol-4-yl)pyrimidin-2-yl]benzyl}-2H-pyridazin-3-one hydrochloride] | 100 to 10000 nM | 100 to 10000 nM
5 | CN(C)CCCOc1cnc(-c2cccc(Cn3nc(C(N)=O)ccc3=O)c2)nc1 [Compound A8, 1-{3-[5-(3-dimethylaminopropoxy)pyrimidin-2-yl]benzyl}-6-oxo-1,6-dihydropyridazine-3-carboxamide] | 100 to 10000 nM | 100 to 10000 nM
